Results: patent publication US20190059368A1, “3,5-DIMETHOXYSTILBENE ANALOGS AND USES THEREOF” (The United States of America, as represented by the …, priority 2017, published 2019)
Converted amounts (≈) assume the structure as drawn. Where two headings read alike, the source gives them in different places. Marks after values point to notes of the source that are not given here.

Tests used:
[1] = test system: Meloidogyne incognita eggs; assay: M. incognita egg immersion assay (hatch and mobility of hatched J2); assay type: in vivo; conditions: for Percent mobile J2, assay 2: 2 days
Description: (§1) Two types of assays were used to investigate activity against M. incognita: i) eggs were immersed in solutions of the test compounds, and ii) second-stage juveniles (J2) previously hatched from eggs were immersed in the test solutions. These assays were conducted with procedures similar to those in Meyer, et al. (J. Nematol. 2006, 38, 333). M. incognita race 1 (originally isolated in 2013 from a field in Maryland) was grown in the greenhouse on pepper (Capsicum annuum L.) cultivar PA-136. Egg masses were hand-picked from plant roots, rinsed three times with sterile distilled H2O, and agitated in 0.6% NaClO for 3.5 minutes to separate and surface-sterilize eggs. The eggs were rinsed in sterile distilled H2O and stored overnight at 4° C. before use in egg immersion assays. To collect J2 for direct immersion into the test compounds, sterilized eggs were placed into a hatching chamber made with a Spectra/Mesh Nylon Filter (openings 25 μm in diameter; Spectrum Laboratories Inc., Rancho Dominguez, Calif., USA) in an autoclaved dish. J2 that passed through the filter within 3 days were used immediately for assays.
(§2) The assays were conducted in 96-well polystyrene plates. For the assays with immersed eggs, each well received approximately 50 eggs in 35 μl of sterile deionized water (SDW). For assays with previously hatched J2, a suspension of approximately 50 J2 in 35 μl of SDW was placed into each well. Each well then received 165 μl of treatment or control. The solvent used to dissolve the test chemicals was a 1:1:1 mixture referred to herein as CTD: equal parts Cremophor® EL Castor Oil (BASF Corporation, Vandalia, Ill., USA), Tween 80® (Sigma-Aldrich, St. Louis, Mo., USA), and DMSO (Sigma-Aldrich). A high and low rate of each compound was tested. After addition to the nematode suspensions in the wells, the low and high rates were 83.3 and 166.7 μg/ml of each test compound, respectively, dissolved in 0.5% and 1.0% of each of the three combined solvents. Controls were CTD equivalent to the low and high rates, and SDW. Because of the large number of treatments, the test compounds were divided into two groups for the egg immersion assays. The compounds tested in the egg immersion Assay 1 were 3, 6a, 6e, 6f, 6g, 6n, 7a, 7c, 7e, 7f, 7n, 11, 12, 16, and 17. The compounds tested in the egg immersion Assay 2 were 6b, 6h, 6i, 6j, 6k, 6l , 7b, 7g, 7h, 7i, 7j, 7k, 7l, and 7m (data not shown). Test compounds used for assays with previously hatched J2 were selected based on results with the egg assays. The five compounds tested were 6b, 6f, 6g, 6i, and 7k, high and low rates.
(§3) Each polystyrene culture plate was covered with a plastic adhesive sheet (Excel Scientific, Inc., Victorville, Calif., USA) and incubated at 25° C. Ten wells (water controls) or five wells (all other treatments) were used per treatment in each assay. In egg immersion assays, total numbers of hatched J2, and numbers of mobile and immobile J2, were counted after 2 and 7 days incubation in the test compounds. In the first assay with previously hatched J2, the numbers of mobile and immobile J2 were counted after 1 and 2 days incubation, the treatments removed and replaced with a SDW rinse, and 2 days later the mobile vs. immobile J2 counted again. In assays with 6g and 7k, high rates and counts were made on Days 1, 2, 4, and 6, without a SDW rinse.
Data from the M. incognita assays were analyzed with the statistical package JMP 11.2.0 (SAS Institute, Cary, N.C., USA). Differences among numbers of hatched J2 in each treatment, and among percentage of mobile J2 per treatment (number mobile J2/total J2×100), were determined by the ANOVA, and means were compared using Tukey Kramer's adjustment for multiple comparisons (P<0.05). For percent mobile J2 on Day 2 in egg immersion Assays 1 and 2, and Day 4 with the five compounds in the J2 immersion assay, data were log10 (x+1)-transformed before analysis. Data presented are nontransformed means.

[2] = test system: Meloidogyne incognita second-stage juveniles (J2); assay: M. incognita assay with previously hatched J2 immersed in test solutions; conditions: in vivo
Description: as §1
as §2, with “The five compounds tested were 6b, 6f, 6g, 6i, and 7k, high and low rates.” left out
as §3, with “Ten wells (water controls) or five wells (all other treatments) were used per treatment in each assay.” left out, “In assays with 6g and 7k, high rates and counts were made on Days 1, 2, 4, and 6, without a SDW rinse.” left out
Data from the M. incognita assays were analyzed with the statistical package JMP 11.2.0 (SAS Institute, Cary, N.C., USA). Differences among numbers of hatched J2 in each treatment, and among percentage of mobile J2 per treatment (number mobile J2/total J2×100), were determined by the ANOVA, and means were compared using Tukey Kramer's adjustment for multiple comparisons (P<0.05). […]

Ae. aegypti larvae = assay: Larvicidal bioassay against 1-day-old Ae. aegypti larvae (screening and dose-response); assay type: in vivo, Aedes aegypti
Description: Analogs were screened for activity against Ae. aegypti larvae following a bioassay system described in Ali, A., et al. (J. Med. Entomol. 2014, 51, 824). Ae. aegypti larvae used in these studies were from a laboratory colony maintained at the Mosquito and Fly Research Unit at the Center for Medical, Agricultural and Veterinary Entomology, USDA-ARS, Gainesville, Fla. For larval bioassays, the eggs were hatched and the larvae were maintained at a temperature of 27±2° C. and 60±10% RH with a photoperiod regimen of 12:12 hour (Light:Dark). Five 1-day-old Ae. aegypti larvae were added into a droplet of H2O to each well of 24-well plates (BD Labware, Franklin Lakes, N.J., USA) by use of a disposable 22.5-cm Pasteur pipette. A quantity of 50 μl of larval diet (2% slurry of 3:2 beef liver powder (Now Foods, Bloomingdale, Ill., USA) and Brewer's yeast (Lewis Laboratories Ltd., Westport, Conn., USA) was added to each well using a Finnpipette stepper (Thermo Fisher, Vantaa, Finland). All chemicals tested were diluted in DMSO. A quantity of 11 μl of the test chemical was added to the labeled wells, while 11 μl of DMSO was added to control treatments. After the treatment application, the plates were swirled in clockwise and counterclockwise motions and front and back and side to side five times to ensure even mixing of the chemicals. Larval mortality was recorded 24 hours post-treatment. […] Three dosages, 100, 50, and 25 ppm, were used in the screening bioassay to determine the larvicidal activity and each treatment was replicated twice. […] Each treatment was replicated ten times. LC50 Values for larvicidal data were calculated using SAS, Proc Probit. Control mortality was corrected using the Abbott's formula.

[3] = test system: larvae of ORL and PR strains of Ae. aegypti; assay type: in vivo; conditions: for Percent Mortality: larvae, 24 h
Description: (§4) Further tests were performed on compounds 11 and 12 to determine their effect on larvae and adult mosquitoes. The compounds were tested in the standard bioassays using the Orlando (ORL), pesticide-susceptible strain and the Puerto Rico (PR), pyrethroid-resistant strain of Ae. aegypti. The ORL strain has been in continuous colony since 1952 with no pesticide exposure while the resistant PR strain was colonized from egg papers collected near San Juan, PR in June, 2012. The PR strain is available as a resistant reference strain through BEIResources/CDC. Mortality was determined in the larval assays at four different concentrations (1, 0.5, 0.25, and 0.1 μg/μl) and three concentrations for adults (6.25%, 3.125%, and 1.56%). Mortality was recorded 24 h post-application, and in all assays, a negative solvent and a positive control using permethrin were utilized; tests were done in triplicate. Assays were conducted according to published procedures as described in Wanner, J. et al. (Curr. Bioact. Compd. 2015, 11, 13).

[4] = test system: adults of ORL and PR strains of Ae. aegypti; assay: Adult mosquito assay, ORL and PR strains; assay type: in vivo; conditions: for Percent Mortality: adults, 6.25%, 24 h
Description: as §4

[5] = test system: Cryptococcus neoformans ATCC 90113; assay: Antimicrobial microplate assay (modified CLSI); assay type: cell-based; conditions: Cryptococcus neoformans, ATCC90113; Cr. neoformans
Description: (§5) All organisms were obtained from the American Type Culture Collection (ATCC; Manassas, Va., USA) and included the fungi Cryptococcus neoformans ATCC 90113 and the bacteria Staphylococcus aureus ATCC 29213, methicillin-resistant S. aureus ATCC 33591 (MRSA), and Mycobacterium intracellulare ATCC 23068. All organisms were tested using modified versions of the CLSI (formerly NCCLS) methods. For all organisms excluding My. intracellulare, optical density was used to monitor growth. Medium supplemented with 5% AlamarBlue® (BioSource International, Camarillo, Calif., USA) was utilized for growth detection of My. intracellulare. Samples (dissolved in DMSO) were serially diluted in 20% DMSO/saline and transferred (10 μl) in duplicate to 96-well flat-bottom microplates. Inocula were prepared by correcting the OD630 of microbe suspensions in Sabouraud Dextrose for Cr. neoformans, cation-adjusted Mueller-Hinton (Difco) at pH 7.3 for Staphylococcus spp., and 5% AlamarBlue® (BioSource International) in Middlebrook 7H9 broth with OADC enrichment, pH=7.0 for My. intracellulare, to afford an assay volume of 200 μl and final target inocula of: Cr. neoformans.: b 1.5×10^3, My. intracellulare: 2.0×10^6, and Staphylococcus spp.,: 5.0×10^5 CFU/ml. Final sample test concentrations were 1/100th the DMSO stock concentration. Drug controls (Ciprofloxacin (ICN Biomedicals, Ohio, USA) for bacteria and Amphotericin B (ICN Biomedicals) for fungi) were included in each assay. All organisms were read at either 530 nm using the Biotek Powerwave XS plate reader (Bio-Tek Instruments, VT) or 544ex1590em (My. intracellulare) using the Polarstar Galaxy Plate Reader (BMG LabTechnologies, Germany) before and after incubation: Staphylococcus spp. at 35° C. for 16-20 h, Cr. neoformans at 35° C. for 70-74 h, and My. intracellulare at 37° C. and 10% CO2 for 70-74 h. IC50 Values (concentrations that afford 50% inhibition relative to controls) werecalculated using XLfit 4.2 software (IDBS, Alameda, Calif.) using fit model 201.

[6] = test system: Staphylococcus aureus ATCC 29213; assay: Antimicrobial microplate assay (modified CLSI); assay type: cell-based; conditions: ATCC29213, S. aureus
Description: as §5, with “Drug controls (Ciprofloxacin (ICN Biomedicals, Ohio, USA) for bacteria and Amphotericin B (ICN Biomedicals) for fungi) were included in each assay.” left out

[7] = test system: methicillin-resistant S. aureus ATCC 33591 (MRSA); assay: Antimicrobial microplate assay (modified CLSI); assay type: cell-based; conditions: Staphylococcus aureus
Description: as §5, with “Drug controls (Ciprofloxacin (ICN Biomedicals, Ohio, USA) for bacteria and Amphotericin B (ICN Biomedicals) for fungi) were included in each assay.” left out

[8] = test system: Mycobacterium intracellulare ATCC 23068; assay: Antimicrobial microplate assay (modified CLSI, AlamarBlue); assay type: cell-based; conditions: ATCC23068, My. intracellulare
Description: as §5, with “Drug controls (Ciprofloxacin (ICN Biomedicals, Ohio, USA) for bacteria and Amphotericin B (ICN Biomedicals) for fungi) were included in each assay.” left out

[9] = 1-day-old larvae, mortality 24 hours post-treatment

COc1ccc(/C=C\c2cc(OC)c(C)c(OC)c2)cc1OC [Compound 7k, (Z)-1,3-dimethoxy-5-(3,4-dimethoxystyryl)-2-methylbenzene]
Percent mobile J2, assay 2 ([1]; high rate (166.7 μg/ml)): 72.2% | Percent mobile J2, assay 2 ([1]; low rate (83.3 μg/ml)): 92.5% | effect on mobility of J2 hatched from eggs immersed in solutions (in words) ([1]; in vivo): some suppressive effect on mobility | effect on mobility of J2 previously hatched in water and immersed directly (in words) [2]: had an effect on J2 mobility

COc1cc(/C=C/c2ccc(O)c(CC=C(C)C)c2)cc(OC)c1 [Compound 11, (E)-4-(3,5-dimethoxystyryl)-2-(3-methylbut-2-en-1-yl)phenol]
LC50 (LD50 converted to μM) (Ae. aegypti larvae; 1-day-old larvae, 24 hours): 45.31 µM | LD50 (95% CI) (Ae. aegypti larvae; [9]): 14.7^b ppm | LD90 (95% CI) (Ae. aegypti larvae; [9]): 34.7 ppm | larvicidal activity (in words) (Ae. aegypti larvae; screening at 100, 50 and 25 ppm): high larvicidal activity | effectiveness against larvae (in words) ([3]; ORL and PR strains): highly effective | Percent Mortality ([3]; ORL strain, 0.1 μg/μl): 100% | Percent Mortality ([3]; ORL strain, 0.25 μg/μl): 100% | Percent Mortality ([3]; ORL strain, 0.5 μg/μl): 100% | Percent Mortality ([3]; ORL strain, 1.0 μg/μl): 100% | Percent Mortality ([3]; PR strain, 0.1 μg/μl): 93.3 ± 11.5% | Percent Mortality ([3]; PR strain, 0.25 μg/μl): 100% | Percent Mortality ([3]; PR strain, 0.5 μg/μl): 100% | Percent Mortality ([3]; PR strain, 1.0 μg/μl): 100% | effectiveness against adult mosquitoes (in words) ([4]; both strains): somewhat effective | IC50 [5]: 13.6 µM | MIC [5]: 30.8 µM (≈ 10 µg/mL) | IC50 [6]: 13.1 µM | MIC [6]: 30.8 µM (≈ 10 µg/mL) | IC50 [7]: 9.1 µM | MIC [7]: 15.4 µM (≈ 5 µg/mL) | IC50 [8]: 47.2 µM | MIC [8]: 61.7 µM (≈ 20 µg/mL)

CC1(C)C(C=C(Cl)Cl)C1C(=O)OCc1cccc(Oc2ccccc2)c1 (stereo not drawn) [Permethrin, permethrin, reference compound]
Percent Mortality ([3]; ORL strain, 0.1 μg/μl): 100% | Percent Mortality ([3]; PR strain, 0.1 μg/μl): 93.3 ± 11.5% | Percent Mortality ([4]; ORL strain): 100% | Percent Mortality ([4]; PR strain): 85 ± 10%
